Columns and labels:
Assay type in all cases: cell-based
IKZF1 = molecular target: T1, IKZF1 (Homo sapiens, UniProt Q13422+Q96SW2); experiment: HEK293 HiBiT in vitro degradation of IKZF1; conditions: for Dmax: HEK293, HEK293 HiBiT; for Dmax / IKZF1 Dmax: maximum degradation at the highest concentration tested; for DC50 / IKZF1 Dmax: HEK293 HiBiT; for DC50: 18-24 hr incubation, normalized to DMSO control, read-out: IKZF1 EC50
T1 construct: expressed in transfected cells
Summary of the method: (§1)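 Read-out: Nano-Glo lytic HiBiT luminescence after 18-24 h compound exposure at 37 °C, fitted to EC50 and Dmax. Cells were Flp-In T-REx HEK293 expressing linker-HiBiT fused to the C-terminus of each target, doxycycline-induced ([…] final) overnight beforehand.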

IKZF2 [1] = molecular target: T2, IKZF2 (Homo sapiens, UniProt Q96SW2+Q9UKS7); experiment: HEK293 HiBiT in vitro degradation of IKZF2; parameters: expressed in transfected cells; conditions: for Dmax: HEK293, HEK293 HiBiT; for Dmax / IKZF2 Dmax: maximum degradation at the highest concentration tested; for DC50 / IKZF2 Dmax: HEK293 HiBiT; for DC50: 18-24 hr incubation, normalized to DMSO control, read-out: IKZF2 EC50
Summary of the method: as §1
Target sequence in this assay (Q9UKS7 1-500 isoform Q9UKS7-2): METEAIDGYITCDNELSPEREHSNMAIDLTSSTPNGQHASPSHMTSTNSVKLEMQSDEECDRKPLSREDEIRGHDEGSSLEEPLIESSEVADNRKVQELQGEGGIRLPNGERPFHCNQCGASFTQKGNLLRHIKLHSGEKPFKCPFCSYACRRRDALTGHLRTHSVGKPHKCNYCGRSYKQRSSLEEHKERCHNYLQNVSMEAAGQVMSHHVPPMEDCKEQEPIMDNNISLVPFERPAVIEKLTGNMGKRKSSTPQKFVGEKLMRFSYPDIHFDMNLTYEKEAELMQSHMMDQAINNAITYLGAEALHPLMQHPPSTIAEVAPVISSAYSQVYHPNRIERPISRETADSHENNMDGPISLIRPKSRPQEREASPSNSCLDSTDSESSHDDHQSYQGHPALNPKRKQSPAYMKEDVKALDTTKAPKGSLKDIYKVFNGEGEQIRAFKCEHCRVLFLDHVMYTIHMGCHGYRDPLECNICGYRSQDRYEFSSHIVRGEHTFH
Target sequence in this assay (Q96SW2 whole entry): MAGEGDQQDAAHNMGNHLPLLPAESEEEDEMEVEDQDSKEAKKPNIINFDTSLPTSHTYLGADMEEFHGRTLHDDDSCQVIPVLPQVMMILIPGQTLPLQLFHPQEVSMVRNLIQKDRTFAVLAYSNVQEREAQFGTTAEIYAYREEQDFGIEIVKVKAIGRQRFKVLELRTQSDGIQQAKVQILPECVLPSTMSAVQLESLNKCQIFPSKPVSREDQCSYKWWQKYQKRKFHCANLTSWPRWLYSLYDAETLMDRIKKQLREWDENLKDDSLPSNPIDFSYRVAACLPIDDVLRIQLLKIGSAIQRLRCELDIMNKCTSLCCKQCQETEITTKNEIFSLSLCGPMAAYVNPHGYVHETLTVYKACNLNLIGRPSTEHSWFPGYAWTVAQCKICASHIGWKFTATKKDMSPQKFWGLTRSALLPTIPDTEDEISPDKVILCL
Target sequence in this assay (Q16531 whole entry partner): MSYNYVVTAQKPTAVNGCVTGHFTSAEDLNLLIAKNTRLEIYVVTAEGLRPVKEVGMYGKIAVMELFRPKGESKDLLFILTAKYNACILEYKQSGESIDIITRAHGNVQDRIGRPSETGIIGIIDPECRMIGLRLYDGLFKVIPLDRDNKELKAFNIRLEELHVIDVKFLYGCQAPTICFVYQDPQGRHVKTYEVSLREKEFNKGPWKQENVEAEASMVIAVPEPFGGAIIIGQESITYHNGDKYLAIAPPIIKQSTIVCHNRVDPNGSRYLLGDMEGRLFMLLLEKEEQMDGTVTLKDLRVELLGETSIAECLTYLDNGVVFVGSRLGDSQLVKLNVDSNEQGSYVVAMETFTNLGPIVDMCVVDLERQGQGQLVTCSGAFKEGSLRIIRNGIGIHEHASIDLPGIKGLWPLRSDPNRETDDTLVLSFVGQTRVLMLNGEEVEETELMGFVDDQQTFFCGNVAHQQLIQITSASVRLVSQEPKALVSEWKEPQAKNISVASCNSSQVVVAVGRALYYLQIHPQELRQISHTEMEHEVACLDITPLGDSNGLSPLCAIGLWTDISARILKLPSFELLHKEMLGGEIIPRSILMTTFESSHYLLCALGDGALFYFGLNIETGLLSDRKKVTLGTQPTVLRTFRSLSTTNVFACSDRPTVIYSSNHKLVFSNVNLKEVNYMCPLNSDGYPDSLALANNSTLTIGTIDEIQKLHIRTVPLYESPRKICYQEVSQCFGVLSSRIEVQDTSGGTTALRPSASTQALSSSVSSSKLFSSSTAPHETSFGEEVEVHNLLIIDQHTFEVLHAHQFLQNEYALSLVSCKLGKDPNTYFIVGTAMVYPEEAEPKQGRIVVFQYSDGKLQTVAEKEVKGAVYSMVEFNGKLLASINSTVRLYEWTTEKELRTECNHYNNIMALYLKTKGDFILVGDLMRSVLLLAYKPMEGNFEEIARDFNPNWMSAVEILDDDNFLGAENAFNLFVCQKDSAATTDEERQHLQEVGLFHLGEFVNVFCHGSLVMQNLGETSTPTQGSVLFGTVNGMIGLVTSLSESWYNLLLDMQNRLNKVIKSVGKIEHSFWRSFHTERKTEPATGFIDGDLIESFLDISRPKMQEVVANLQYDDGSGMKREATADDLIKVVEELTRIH

IKZF2 [2] = molecular target: T2, IKZF2; experiment: Human whole blood IKZF2 degradation (flow cytometry, CD4/CD25/Foxp3+ Treg cells); parameters: endogenous in cells; conditions: 24 hrs incubation, IKZF2 MFI in CD4/CD25/Foxp3+ Treg cells, flow cytometry; for DC50: read-out: IKZF2 EC50
Experimental: In vitro IKZF2 potency was assessed in human whole blood using a fluorescence activated cell sorting assay. 50 μL of freshly collected blood from healthy human volunteers was incubated with Immunocult CD3/CD28 activator (Stemcell Technologies) and solution of testing compounds (serially-diluted) for 24 hrs hours at 37° C. in 384 well plates. The treated red blood cells were removed by adding lysis buffer (BD cat #558049) then the cells were fixed, permeabilized, and stained with anti-CD4 (BD cat #564419), anti-Foxp3 (Invitrogen cat #48-4777-42), anti-IKZF1 (Cell Signaling Tech. cat #33462S), and anti-IKZF2(Cell Signaling Tech. cat #65432S) antibodies. The median fluorescent intensity (MFI) of IKZF2 signal from CD4/CD25/Foxp3+ Treg cells and MFI of IKZF1 signal from CD4+ T cells were quantified in the same samples by flow cytometry using an Attune instrument. EC50 and Dmax of each compound was determined by plotting the MFI and DMSO treated wells were used as control. Asterisks (*) indicate examples for which data represents an average of n≥3 repeat experiments.
Target sequence in this assay (Q9UKS7 whole entry): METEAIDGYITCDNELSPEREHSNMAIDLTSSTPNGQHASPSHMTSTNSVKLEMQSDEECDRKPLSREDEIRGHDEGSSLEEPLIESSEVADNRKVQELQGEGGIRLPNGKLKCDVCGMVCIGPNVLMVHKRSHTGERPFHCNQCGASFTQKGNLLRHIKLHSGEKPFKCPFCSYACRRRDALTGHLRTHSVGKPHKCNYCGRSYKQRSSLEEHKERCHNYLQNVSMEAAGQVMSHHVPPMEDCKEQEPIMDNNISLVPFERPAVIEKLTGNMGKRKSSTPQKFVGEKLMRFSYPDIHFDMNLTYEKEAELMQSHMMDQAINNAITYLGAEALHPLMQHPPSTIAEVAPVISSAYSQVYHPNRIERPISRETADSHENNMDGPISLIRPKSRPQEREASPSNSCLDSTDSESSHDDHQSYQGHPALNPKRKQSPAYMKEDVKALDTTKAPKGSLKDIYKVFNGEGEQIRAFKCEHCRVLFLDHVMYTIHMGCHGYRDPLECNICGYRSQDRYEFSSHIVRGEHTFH
Target sequence in this assay (Q96SW2 whole entry): as the sequence (Q96SW2 whole entry) above
Target sequence in this assay (Q16531 whole entry partner): as the sequence (Q16531 whole entry partner) above

T1 sequence (Q13422 whole entry): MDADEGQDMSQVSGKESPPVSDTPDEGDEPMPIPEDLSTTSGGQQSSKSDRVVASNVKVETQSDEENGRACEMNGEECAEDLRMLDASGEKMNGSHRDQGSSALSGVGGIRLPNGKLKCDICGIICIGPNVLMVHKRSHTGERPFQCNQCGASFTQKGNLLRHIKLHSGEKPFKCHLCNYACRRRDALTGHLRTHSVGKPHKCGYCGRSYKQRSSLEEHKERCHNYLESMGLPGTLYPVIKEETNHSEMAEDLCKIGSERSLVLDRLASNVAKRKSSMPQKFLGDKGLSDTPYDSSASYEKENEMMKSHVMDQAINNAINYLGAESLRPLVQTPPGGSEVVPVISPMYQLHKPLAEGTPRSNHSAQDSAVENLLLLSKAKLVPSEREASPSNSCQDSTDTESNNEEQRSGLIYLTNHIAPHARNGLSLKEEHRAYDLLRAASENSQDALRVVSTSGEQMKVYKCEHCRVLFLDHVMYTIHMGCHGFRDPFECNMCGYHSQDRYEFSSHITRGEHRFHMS
T1 sequence (Q96SW2 whole entry): as the sequence (Q96SW2 whole entry) above
T1 sequence (Q16531 whole entry partner): as the sequence (Q16531 whole entry partner) above

Row | SMILES | Dmax (IKZF1) [%] | DC50 (IKZF1) [nM] | Dmax (IKZF2 [1]) [%] | DC50 (IKZF2 [1]) [nM] | Dmax (IKZF2 [2]) [%] | DC50 (IKZF2 [2]) [nM] | IKZF1 Dmax (IKZF1) [%] | IKZF2 Dmax (IKZF2 [1]) [%] | IKZF2 Dmax (IKZF2 [2]) [%]
1 | COCC1CCC(N[C@H]2CCCC[C@@H]2Cc2ccc3c(c2)CN(C2CCC(=O)NC2=O)C3=O)CC1 (single isomer, unassigned) [Example 251] | 35 | 213 | 98 | 1 | 98 | 2 | – | – | –
2 | COCC1CCC(N[C@H]2CCCC[C@@H]2Cc2ccc3c(c2)CN(C2CCC(=O)NC2=O)C3=O)CC1 (single isomer, unassigned) [Example 252] | – | 105 | – | 3 | – | 1 | 31 | 98 | 97
3 | O=C1CCC(N2Cc3cc(C[C@H]4CCCC[C@@H]4NC4CC5CC5C4)ccc3C2=O)C(=O)N1 (single isomer, unassigned) [Example 266] | 32 | 55 | 97 | 4 | 98 | 6 | – | – | –
4 | N#CC1CCC(N[C@H]2CCCC[C@@H]2Cc2ccc3c(c2)CN(C2CCC(=O)NC2=O)C3=O)CC1 (single isomer, unassigned) [Example 267] | 44 | 109 | 98 | 4 | 97 | 2 | – | – | –
5 | O=C1CCC(N2Cc3cc(C[C@H]4CCCC[C@@H]4NC4CCC5(CC4)CC5(F)F)ccc3C2=O)C(=O)N1 (single isomer, unassigned) [Example 272] | – | 40 | – | 1 | 97 | 2 | 54 | 98 | –
6 | COC1CCC(N[C@H]2CCCC[C@@H]2Cc2ccc3c(c2)CN(C2CCC(=O)NC2=O)C3=O)CC1 (single isomer, unassigned) [Example 277] | 37 | 114 | 98 | 3 | 95 | 2 | – | – | –
7 | O=C1CCC(N2Cc3cc(C[C@H]4CCCC[C@@H]4NC4CCC5(CC5)C4)ccc3C2=O)C(=O)N1 (single isomer, unassigned) [Example 281] | 30 | 43 | 96 | 2 | 98 | 5 | – | – | –
8 | CC(N[C@H]1CCCC[C@@H]1Cc1ccc2c(c1F)CN(C1CCC(=O)NC1=O)C2=O)C1CCOCC1 (single isomer, unassigned) [Example 288] | – | 399 | – | 6 | – | 5 | 32 | 97 | 92
9 | CCC(C)N[C@H]1CCCC[C@@H]1Cc1ccc2c(c1)CN(C1CCC(=O)NC1=O)C2=O (single isomer, unassigned) [Example 299] | – | > 1000 | 98 | 2 | 96 | 2 | – | – | –
10 | CC(C)N[C@H]1CCCC[C@@H]1Cc1ccc2c(c1)CN(C1CCC(=O)NC1=O)C2=O (stereo partly drawn) [Example 7, 3-(5-(((1R,2S)-2-(isopropylamino)cyclohexyl)methyl)-1-oxoisoindolin-2-yl)piperidine-2,6-dione] | 36 | 462 | 99 | 4 | 98 | 2 | – | – | –
11 | CCC(CC)N[C@H]1CCCC[C@@H]1Cc1ccc2c(c1)CN(C1CCC(=O)NC1=O)C2=O (stereo partly drawn) [Example 23, 3-(1-oxo-5-(((1R,2S)-2-(pentan-3-ylamino)cyclohexyl)methyl)isoindolin-2-yl)piperidine-2,6-dione] | 14 | 374 | 95 | 6 | 98 | 6 | – | – | –
12 | O=C1CCC(N2Cc3cc(C[C@H]4CCCC[C@@H]4NCC4CC(F)(F)C4)ccc3C2=O)C(=O)N1 (stereo partly drawn) [Example 24, 3-(5-(((1R,2S)-2-(((3,3-difluorocyclobutyl)methyl)amino)cyclohexyl)methyl)-1-oxoisoindolin-2-yl)piperidine-2,6-dione] | 25 | 345 | 91 | 10 | 89 | 8 | – | – | –
13 | O=C1CCC(N2Cc3cc(C[C@H]4CCCC[C@@H]4NC4CCC5(CC4)CC5)ccc3C2=O)C(=O)N1 (stereo partly drawn) [Example 28, 3-(1-oxo-5-(((1R,2S)-2-(spiro[2.5]octan-6-ylamino)cyclohexyl)methyl)isoindolin-2-yl)piperidine-2,6-dione] | 56 | 327 | 97 | 2 | 99 | 3 | – | – | –
14 | O=C1CCC(N2Cc3cc(C[C@H]4CCCC[C@@H]4NC4CCCC4)ccc3C2=O)C(=O)N1 (stereo partly drawn) [Example 52, 3-(5-(((1R,2S)-2-(cyclopentylamino)cyclohexyl)methyl)-1-oxoisoindolin-2-yl)piperidine-2,6-dione] | – | > 1000 | 96 | 6 | 95 | 5 | – | – | –
15 | CC(C)(C)CCN[C@H]1CCCC[C@@H]1Cc1ccc2c(c1)CN(C1CCC(=O)NC1=O)C2=O (stereo partly drawn) [Example 56, 3-(5-(((1R,2S)-2-((3,3-dimethylbutyl)amino)cyclohexyl)methyl)-1-oxoisoindolin-2-yl)piperidine-2,6-dione] | 44 | 68 | 96 | 14 | 97 | 8 | – | – | –
16 | O=C1CCC(N2Cc3cc(C[C@H]4CCCC[C@@H]4NCC45CC(C4)C5)ccc3C2=O)C(=O)N1 (stereo partly shown) [Example 63] | – | > 1000 | 89 | 19 | 91 | 19 | – | – | –
17 | O=C1CCC(N2Cc3cc(C[C@H]4CCCC[C@@H]4NC4CCOCC4)ccc3C2=O)C(=O)N1 (stereo partly shown) [Example 74] | 55 | 226 | 96 | 4 | 93 | 3 | – | – | –
18 | O=C1CCC(N2Cc3cc(C[C@H]4CCCC[C@@H]4NC4CC5(CC5)C4)ccc3C2=O)C(=O)N1 (stereo partly drawn) [Example 79, 3-(1-oxo-5-(((1R,2S)-2-(spiro[2.3]hexan-5-ylamino)cyclohexyl)methyl)isoindolin-2-yl)piperidine-2,6-dione] | 33 | 98 | 94 | 5 | 93 | 5 | – | – | –
19 | CC1(C)CC(N[C@H]2CCCC[C@@H]2Cc2ccc3c(c2)CN(C2CCC(=O)NC2=O)C3=O)C1 (stereo partly drawn) [Example 82, 3-(5-(((1R,2S)-2-((3,3-dimethylcyclobutyl)amino)cyclohexyl)methyl)-1-oxoisoindolin-2-yl)piperidine-2,6-dione] | 28 | 327 | 94 | 7 | 89 | 4 | – | – | –
20 | CC(C)N[C@H]1CCCC[C@@H]1Cc1ccc2c(c1F)CN(C1CCC(=O)NC1=O)C2=O (stereo partly drawn) [Example 85, 3-(4-fluoro-5-(((1R,2S)-2-(isopropylamino)cyclohexyl)methyl)-1-oxoisoindolin-2-yl)piperidine-2,6-dione] | 40 | 70 | 97 | 2 | 96 | 2 | – | – | –
21 | CC(C)(C)CCN[C@H]1CCCC[C@@H]1Cc1ccc2c(c1F)CN(C1CCC(=O)NC1=O)C2=O (stereo partly drawn) [Example 89, 3-(5-(((1R,2S)-2-((3,3-dimethylbutyl)amino)cyclohexyl)methyl)-4-fluoro-1-oxoisoindolin-2-yl)piperidine-2,6-dione] | 28 | 64 | 97 | 6 | 97 | 5 | – | – | –
22 | O=C1CCC(N2Cc3cc(C[C@H]4OCCC[C@@H]4NC4CCCCC4)ccc3C2=O)C(=O)N1 (stereo partly drawn) [Example 95, 3-(5-(((2R,3S)-3-(cyclohexylamino)tetrahydro-2H-pyran-2-yl)methyl)-1-oxoisoindolin-2-yl)piperidine-2,6-dione] | – | > 10000 | 88 | 16 | 89 | 11 | – | – | –
23 | O=C1CCC(N2Cc3cc(C[C@H]4CCCC[C@@H]4NC4CC5(C4)CC(F)(F)C5)ccc3C2=O)C(=O)N1 (stereo partly shown) [Example 101] | 32 | 39 | 98 | 5 | 95 | 6 | – | – | –
24 | CC(N[C@H]1CCCC[C@@H]1Cc1ccc2c(c1)CN(C1CCC(=O)NC1=O)C2=O)C1CCC1 (stereo partly shown) [Example 103] | – | > 1000 | 95 | 3 | 96 | 4 | – | – | –
25 | CC1(C)CC(N[C@H]2CCCC[C@@H]2Cc2ccc3c(c2)CN(C2CCC(=O)NC2=O)C3=O)CCO1 (stereo partly shown) [Example 109] | 34 | 103 | 96 | 5 | 97 | 1 | – | – | –

Source: patent publication US11897862B2 (Gilead Sciences, Inc., priority 2022, dated 2024)
